Source: patent publication US20100292205A1, “Pyrimidone Compounds As GSK-3 Inhibitors” (PFIZER INC., priority 2006, published 2010)
pIC50: −log10 of the molar value.

Target: T1, Recombinant human GSK3β (Homo sapiens, UniProt P49841)
T1 construct: His-tag; made in house; host or cells: Sf9 insect cells / baculovirus
Assay: GSK-3β (Glycogen Synthase Kinase) cell free enzyme assay
Assay type: biochemical
Settings: 1 μM; Examples 157-199; read-out: Percent inhibition at 1 μM
Procedure, shortened: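 Recombinant human GSK3β, expressed in SF9/baculovirus cells and His-tag purified on Ni-NTA Superflow, was preincubated with test agent for 30 minutes at room temperature. Substrate mix was then added to start the reaction in 8 mM MOPS (pH 7.0), 10 mM magnesium acetate, 0.2 mM EDTA, 1 mM DTT, 2 uM cold ATP, 0.025 uCi/well [33P]ATP (120 uL) and 1.0 uM biotinylated peptide. Reactions ran at RT for 60 min.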

T1 sequence (P49841 whole entry): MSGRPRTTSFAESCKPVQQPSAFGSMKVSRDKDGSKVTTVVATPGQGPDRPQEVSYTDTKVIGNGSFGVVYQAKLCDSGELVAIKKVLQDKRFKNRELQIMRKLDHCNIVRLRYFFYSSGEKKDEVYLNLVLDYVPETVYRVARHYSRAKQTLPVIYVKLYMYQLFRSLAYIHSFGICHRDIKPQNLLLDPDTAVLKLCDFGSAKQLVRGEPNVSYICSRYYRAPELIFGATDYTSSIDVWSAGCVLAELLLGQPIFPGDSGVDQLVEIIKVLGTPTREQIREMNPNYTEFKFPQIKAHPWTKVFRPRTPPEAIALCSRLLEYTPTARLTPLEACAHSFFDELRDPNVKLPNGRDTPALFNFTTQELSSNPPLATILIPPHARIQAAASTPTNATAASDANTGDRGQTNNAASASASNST

| inhibition at 1 µM [%] | Structure (SMILES) |
| --- | --- |
| 92 | CN(c1nc(-c2ccncc2)cc(=O)n1C)[C@@H]1CC[C@H]2N(S(=O)(=O)Cc3ccccc3)CCC2(C)C1 (stereo partly drawn) [Example 195, 2-{[(3,aS5,R7,aR)-1-(Benzylsulfonyl)-3a-methyloctahydro-1H-indol-5-yl](methyl)amino}-3-methyl-6-pyridin-4-ylpyrimidin-4(3H)-one] |
| 94 | CN(c1nc(-c2ccncc2)cc(=O)n1C)C1CCCN(S(=O)(=O)Cc2ccccc2)CC1 (stereo not shown) [Example 196, 2-{[1-(Benzylsulfonyl)azepan-4-yl](methyl)amino}-3-methyl-6-pyridin-4-ylpyrimidin-4(3H)-one] |
| 93 | CCN(c1nc(-c2ccncc2)cc(=O)n1C)C1CCCN(S(=O)(=O)Cc2ccccc2)CC1 (stereo not shown) [Example 197, 2-{[1-(Benzylsulfonyl)azepan-4-yl](ethyl)amino}-3-methyl-6-pyridin-4-ylpyrimidin-4(3H)-one] |
| 97 | CCN(c1nc(-c2ccncc2)cc(=O)n1C)C1CCN(S(=O)(=O)Cc2ccccc2)C1 (stereo not shown) [Example 198, 2-{[1-(Benzylsulfonyl)pyrrolidin-3-yl](ethyl)amino}-3-methyl-6-pyridin-4-ylpyrimidin-4(3H)-one] |
| 89 | CCN(c1nc(-c2ccncc2)cc(=O)n1C)C1CCN(S(=O)(=O)Cc2ccccc2)CC1 [Example 199, 2-{[1-(Benzylsulfonyl)piperidin-4-yl](ethyl)amino}-3-methyl-6-pyridin-4-ylpyrimidin-4(3H)-one] |

Same assay, conditions: 1 μM; Examples 201-221

| Percent inhibition at 1 μM [%] | Structure (SMILES) |
| --- | --- |
| 99 | COC(=O)N1CCCC(N(C)c2nc(-c3ccncc3)cc(=O)n2C)CC1 (stereo not shown) [Example 214, Methyl 4-[methyl(1-methyl-6-oxo-4-pyridin-4-yl-16-dihydropyrimidin-2-yl)amino]azepane-1-carboxylate] |

Same assay, conditions: 1 μM; Examples 201-221; read-out: Percent inhibition at 1 μM

| Structure (SMILES) | inhibition at 1 µM [%] |
| --- | --- |
| COC(=O)N1C[C@H]2CCN(c3nc(-c4ccncc4)cc(=O)n3C)[C@H]2C1 [Example 203, Methyl (3a,R6,aR)-1-(1-methyl-6-oxo-4-pyridin-4-yl-16-dihydropyrimidin-2-yl)hexahydropyrrolo[34-b]pyrrole-5(1H)-carboxylate] | 32 |
| COC(=O)N1C[C@H](Nc2nc(-c3ccncc3)cc(=O)n2C)[C@@H](F)C1 [Example 207, Methyl (3S,4S)-3-fluoro-4-[(1-methyl-6-oxo-4-pyridin-4-yl-l6-dihydropyrimidin-2-yl)amino]pyrrolidine-1-carboxylate] | 74 |
| COC(=O)N1C[C@H](F)[C@H](Nc2nc(-c3ccncc3)cc(=O)n2C)C1 [Example 211, Methyl (3S,4R)-3-fluoro-4-[(1-methyl-6-oxo-4-pyridin-4-yl-16-dihydropyrimidin-2-yl)amino]pyrrolidine-1-carboxylate] | 67 |
| COC(=O)N1CCC(N(C)c2nc(-c3ccncc3)cc(=O)n2C)C1 (stereo not shown) [Example 213, Methyl 3-[methyl(1-methyl-6-oxo-4-pyridin-4-yl-16-dihydropyrimidin-2-yl)amino]pyrrolidine-1-carboxylate] | 95 |
| COC(=O)N1CC[C@@]2(C)C[C@H](N(C)c3nc(-c4ccncc4)cc(=O)n3C)CC[C@@H]12 [Example 216, Methyl (3a,S5,R7,aR)-3a-methyl-5-[methyl(1-methyl-6-oxo-4-pyridin-4-yl-16-dihydropyrimidin-2-yl)amino]octahydro-1H-indole-1-carboxylate] | 88 |
| CCN(c1nc(-c2ccncc2)cc(=O)n1C)C1CCN(C(=O)OC)CC1 [Example 217, Methyl 4-[ethyl(1-methyl-6-oxo-4-pyridin-4-yl-16-dihydropyrimidin-2-yl)amino]piperidine-1-carboxylate] | 84 |
| COC(=O)N1CCC[C@H]1CNc1nc(-c2ccncc2)cc(=O)n1C [Example 218, Methyl (2S)-2-{[(1-methyl-6-oxo-4-pyridin-4-yl-16-dihydropyrimidin-2-yl)amino]methyl}pyrrolidine-1-carboxylate] | 68 |
| COC(=O)N1CC(CNc2nc(-c3ccncc3)cc(=O)n2C)C1 [Example 219, Methyl 3-{[(1-methyl-6-oxo-4-pyridin-4-yl-16-dihydropyrimidin-2-yl)amino]methyl}azetidine-1-carboxylate] | 72 |

Continued, values first:

| inhibition at 1 µM [%] | Structure (SMILES) |
| --- | --- |
| 82 | COC(=O)N1CCC(Nc2nc(-c3ccncc3)cc(=O)n2C)C1 (stereo not shown) [Example 204, Methyl 3-[(1-methyl-6-oxo-4-pyridin-4-yl-16-dihydropyrimidin-2-yl)amino]pyrrolidine-1-carboxylate] |
| 86 | COC(=O)N1CCCC(Nc2nc(-c3ccncc3)cc(=O)n2C)CC1 (stereo not shown) [Example 205, Methyl 4-[(1-methyl-6-oxo-4-pyridin-4-yl-16-dihydropyrimidin-2-yl)amino]azepane-1-carboxylate] |
| 94 | COC(=O)N1CCCCC(Nc2nc(-c3ccncc3)cc(=O)n2C)C1 (stereo not shown) [Example 206, Methyl 3-[(1-methyl-6-oxo-4-pyridin-4-yl-16-dihydropyrimidin-2-yl)amino]azepane-1-carboxylate] |
| 77 | COC(=O)N1CCC(Nc2nc(-c3ccncc3)cc(=O)n2C)CC1 [Example 208, Methyl 4-[(1-methyl-6-oxo-4-pyridin-4-yl-16-dihydropyrimidin-2-yl)amino]piperidine-1-carboxylate] |
| 80 | COC(=O)N1CC(Nc2nc(-c3ccncc3)cc(=O)n2C)C1 [Example 209, Methyl 3-[(1-methyl-6-oxo-4-pyridin-4-yl-16-dihydropyrimidin-2-yl)amino]azetidine-1-carboxylate] |
| 99 | COC(=O)N1CCCC(Nc2nc(-c3ccncc3)cc(=O)n2C)C1 (stereo not shown) [Example 210, Methyl 3-[(1-methyl-6-oxo-4-pyridin-4-yl-16-dihydropyrimidin-2-yl)amino]piperidine-1-carboxylate] |
| 93 | CCN(c1nc(-c2ccncc2)cc(=O)n1C)C1CCCN(C(=O)OC)CC1 (stereo not shown) [Example 215, Methyl 4-[ethyl(1-methyl-6-oxo-4-pyridin-4-yl-16-dihydropyrimidin-2-yl)amino]azepane-1-carboxylate] |
| 91 | COC(=O)N1CCC[C@@H]1CNc1nc(-c2ccncc2)cc(=O)n1C [Example 220, Methyl (2R)-2-{[(1-methyl-6-oxo-4-pyridin-4-yl-16-dihydropyrimidin-2-yl)amino]methyl}pyrrolidine-1-carboxylate] |
| 71 | COC(=O)N1CCC(CNc2nc(-c3ccncc3)cc(=O)n2C)C1 (stereo not shown) [Example 221, Methyl 3-{[(1-methyl-6-oxo-4-pyridin-4-yl-16-dihydropyrimidin-2-yl)amino]methyl}pyrrolidine-1-carboxylate] |

Same assay, conditions: cell free enzyme assay; Examples 222-234

| pIC50 | Structure (SMILES) |
| --- | --- |
| 8.94 | CCOC(=O)N1CCCC(N(C)c2nc(-c3ccncn3)cc(=O)n2C)C1 (stereo not shown) [Example 222, Ethyl 3-[methyl(1-methyl-6-oxo-1,6-dihydro-4,4′-bipyrimidin-2-yl)amino]piperidine-1-carboxylate] |
| 8.98 | COC(=O)N1CCCC(N(C)c2nc(-c3ccncn3)cc(=O)n2C)C1 (stereo not shown) [Example 223, Methyl 3-[methyl(1-methyl-6-oxo-1,6-dihydro-4,4′-bipyrimidin-2-yl)amino]piperidine-1-carboxylate] |
| 8.95 | CCN(C[C@@H]1CCCN1C(=O)OC)c1nc(-c2ccncn2)cc(=O)n1C [Example 224, Methyl (2S)-2-{[ethyl(1-methyl-6-oxo-1,6-dihydro-4,4′-bipyrimidin-2-yl)amino]methyl}pyrrolidine-1-carboxylate] |
| 9.12 | CCOC(=O)N1CCC[C@H]1CN(CC)c1nc(-c2ccncn2)cc(=O)n1C [Example 225, Ethyl (2S)-2-{[ethyl(1-methyl-6-oxo-1,6-dihydro-4,4′-bipyrimidin-2-yl)amino]methyl}pyrrolidine-1-carboxylate] |
| 9.00 | CCN(C[C@H]1CCCN1C(=O)OC)c1nc(-c2ccncn2)cc(=O)n1C [Example 226, Methyl (2R)-2-{[ethyl(1-methyl-6-oxo-1,6-dihydro-4,4′-bipyrimidin-2-yl)amino]methyl}pyrrolidine-1-carboxylate] |
| 9.08 | CCOC(=O)N1CCC[C@@H]1CN(CC)c1nc(-c2ccncn2)cc(=O)n1C [Example 227, Ethyl (2R)-2-{[ethyl(1-methyl-6-oxo-1,6-dihydro-4,4′-bipyrimidin-2-yl)amino]methyl}pyrrolidine-1-carboxylate] |
| 9.00 | COC(=O)N1CCC[C@@H](Nc2nc(-c3ccncn3)cc(=O)n2C)C1 [Example 228, Methyl (3R)-3-[(1-methyl-6-oxo-1,6-dihydro-4,4′-bipyrimidin-2-yl)amino]piperidine-1-carboxylate] |
| 8.70 | CCOC(=O)N1CCC[C@@H](Nc2nc(-c3ccncn3)cc(=O)n2C)C1 [Example 229, Ethyl (3R)-3-[(1-methyl-6-oxo-1,6-dihydro-4,4′-bipyrimidin-2-yl)amino]piperidine-1-carboxylate] |
| 9.02 | CCOC(=O)N1CCC[C@@H](N(C)c2nc(-c3ccncn3)cc(=O)n2C)C1 [Example 230, Ethyl (3R)-3-[methyl(1-methyl-6-oxo-1,6-dihydro-4,4′-bipyrimidin-2-yl)amino]piperidine-1-carboxylate] |
| 8.94 | CCOC(=O)N1CCC[C@@H](N(C)c2nc(-c3ccncc3)cc(=O)n2C)C1 [Example 231, Ethyl (3R)-3-[methyl(1-methyl-6-oxo-4-pyridin-4-yl-1,6-dihydropyrimidin-2-yl)amino]piperidine-1-carboxylate] |
| 9.07 | COC(=O)N1CCC[C@@H](Nc2nc(-c3ccncc3)cc(=O)n2C)C1 [Example 232, Methyl (3R)-3-[(1-methyl-6-oxo-4-pyridin-4-yl-1,6-dihydropyrimidin-2-yl)amino]piperidine-1-carboxylate] |
